Molecular target: Aurora B/INCENP (Homo sapiens, UniProt Q96GD4)
Test: Determination of inhibition of AIK: Aurora B/INCENP direct fluorescence polarization (IMAP) assay
Type: biochemical
Conditions: 10 uM ATP, 0.8 nM Aurora B/INCENP; values given as bins; read-out: IC50 of Exemplified Compounds Against AIK B
Description: Detection of the reaction product is performed by addition of Progressive IMAP binding reagent (Molecular Devices). Reaction product may be determined quantitatively by FP using an Analyst HT plate reader (Molecular Devices) with an excitation wavelength at 485 nm and emission at 530 nm and using a Fluorescein 505 dichroic mirror.
The assay reaction may be initiated as follows: 2 ul of (3×) 300 nM Fl-Peptide/30 uM ATP was added to each well of the plate, followed by the addition of 2 ul of (3×) inhibitor (2 fold serial dilutions for 11 data points for each inhibitor) containing 15% DMSO. Two microliters of (3×) 2.4 nM AuroraB/INCENP solution may be added to initiate the reaction (final enzyme concentration was 0.8 nM for Aurora B/INCENP). The reaction mixture may then be incubated at room temperature for 45 min, and quenched and developed by addition of 20 ul of 1 to 400 diluted Progressive IMAP binding reagent in 1× proprietary Progressive IMAP binding buffer A. Fluorescence polarization readings of the resulting reaction mixtures may be measured after a 60-minute incubation at room temperature.
IC50 values may be calculated by non-linear curve fitting of the compound concentrations and fluorescent polarization values to the standard IC50 equation.

Sequence of Aurora B/INCENP (Q96GD4 whole entry): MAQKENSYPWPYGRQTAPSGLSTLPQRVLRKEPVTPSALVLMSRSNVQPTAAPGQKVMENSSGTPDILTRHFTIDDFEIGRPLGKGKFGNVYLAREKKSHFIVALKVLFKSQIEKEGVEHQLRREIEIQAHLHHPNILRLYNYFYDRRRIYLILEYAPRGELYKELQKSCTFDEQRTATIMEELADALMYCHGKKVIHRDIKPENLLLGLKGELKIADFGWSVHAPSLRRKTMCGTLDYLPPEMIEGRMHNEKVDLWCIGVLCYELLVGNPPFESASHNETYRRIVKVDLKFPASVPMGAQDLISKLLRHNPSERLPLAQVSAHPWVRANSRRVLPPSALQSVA
Sequence of Aurora B/INCENP (Q9NQS7 whole entry partner): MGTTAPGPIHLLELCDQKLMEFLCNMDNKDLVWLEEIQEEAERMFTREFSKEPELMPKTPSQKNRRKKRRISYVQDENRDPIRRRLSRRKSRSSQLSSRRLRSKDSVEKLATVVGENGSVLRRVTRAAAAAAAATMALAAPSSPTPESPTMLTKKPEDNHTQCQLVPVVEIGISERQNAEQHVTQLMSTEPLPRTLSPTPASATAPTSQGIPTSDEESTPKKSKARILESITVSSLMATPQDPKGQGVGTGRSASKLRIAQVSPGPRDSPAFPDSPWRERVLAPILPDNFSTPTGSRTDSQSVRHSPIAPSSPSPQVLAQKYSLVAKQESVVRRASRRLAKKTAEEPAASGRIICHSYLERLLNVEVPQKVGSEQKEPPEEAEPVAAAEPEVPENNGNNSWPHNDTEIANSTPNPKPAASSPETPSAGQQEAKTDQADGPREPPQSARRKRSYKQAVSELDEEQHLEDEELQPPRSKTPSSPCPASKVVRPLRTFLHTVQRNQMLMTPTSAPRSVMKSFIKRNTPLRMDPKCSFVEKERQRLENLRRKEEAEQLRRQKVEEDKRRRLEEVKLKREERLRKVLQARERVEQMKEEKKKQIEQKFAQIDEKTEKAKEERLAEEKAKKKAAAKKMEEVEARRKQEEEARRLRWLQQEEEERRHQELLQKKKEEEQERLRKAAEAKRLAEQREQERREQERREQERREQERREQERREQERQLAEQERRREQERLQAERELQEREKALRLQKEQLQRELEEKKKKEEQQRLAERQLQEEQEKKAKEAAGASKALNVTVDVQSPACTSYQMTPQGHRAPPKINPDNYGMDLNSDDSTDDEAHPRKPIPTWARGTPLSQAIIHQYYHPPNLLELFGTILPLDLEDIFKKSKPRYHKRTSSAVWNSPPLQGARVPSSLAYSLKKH

Row | SMILES | IC50
1 | c1ccc(-c2cccc3[nH]c4ncccc4c23)cc1 [Compound 5, 5-phenyl-9H-pyrido[2,3-b]indole] | > 13 nM
2 | CS(=O)(=O)c1cccc(-c2cccc3[nH]c4ncccc4c23)c1 [Compound 8, 5-(3-(methylsulfonyl)phenyl)-9H-pyrido[2,3-b]indole] | > 13 nM
3 | CCS(=O)(=O)c1cccc(-c2cccc3[nH]c4ncccc4c23)c1 [Compound 9, 5-(3-(ethylsulfonyl)phenyl)-9H-pyrido[2,3-b]indole] | > 13 nM
4 | Cc1cccc(-c2cccc3[nH]c4ncccc4c23)c1 [Compound 11, 5-m-tolyl-9H-pyrido[2,3-b]indole] | > 13 nM
5 | O=S(=O)(NC1CC1)c1cccc(-c2cccc3[nH]c4ncccc4c23)c1 [Compound 12, N-cyclopropyl-3-(9H-pyrido[2,3-b]indol-5-yl)benzenesulfonamide] | > 13 nM
6 | CNS(=O)(=O)c1cc(-c2ccc(C)c3[nH]c4ncc(C)cc4c23)ccc1OC [Compound 14, 5-(3,8-dimethyl-9H-pyrido[2,3-b]indol-5-yl)-2-methoxy-N-methylbenzenesulfonamide] | < 4 nM
7 | CNS(=O)(=O)c1cccc(-c2ccc(C)c3[nH]c4ncc(C)cc4c23)c1 [Compound 15, 3-(3,8-dimethyl-9H-pyrido[2,3-b]indol-5-yl)-N-methylbenzenesulfonamide] | < 4 nM
8 | Cc1cnc2[nH]c3c(C)ccc(-c4cccc(S(=O)(=O)N(C)C)c4)c3c2c1 [Compound 16, 3-(3,8-dimethyl-9H-pyrido[2,3-b]indol-5-yl)-N,N-dimethylbenzenesulfonamide] | 5.6 to 8.5 nM
9 | CCS(=O)(=O)c1cccc(-c2ccc(C)c3[nH]c4ncc(C)cc4c23)c1 [Compound 18, 5-(3-(ethylsulfonyl)phenyl)-3,8-dimethyl-9H-pyrido[2,3-b]indole] | 5.6 to 8.5 nM
10 | Cc1cnc2[nH]c3c(C)ccc(-c4cccc(C(=O)NC5CC5)c4)c3c2c1 [Compound 20, N-cyclopropyl-3-(3,8-dimethyl-9H-pyrido[2,3-b]indol-5-yl)benzamide] | 4 to 5.5 nM
11 | CC(=O)Nc1ccc(Sc2cccc3[nH]c4ncccc4c23)cc1 [Compound 21, N-(4-(9H-pyrido[2,3-b]indol-5-ylthio)phenyl)acetamide] | > 13 nM
12 | c1ccc(Sc2cccc3[nH]c4ncccc4c23)cc1 [Compound 23, 5-(phenylthio)-9H-pyrido[2,3-b]indole] | > 13 nM
13 | Cc1cnc2[nH]c3c(C)ccc(SCc4ccccc4)c3c2c1 [Compound 25, 5-(benzylthio)-3,8-dimethyl-9H-pyrido[2,3-b]indole] | > 13 nM
14 | CCS(=O)(=O)c1cccc(-c2c[nH]c(=O)c3[nH]c4ncc(C)cc4c23)c1 [Compound 32, 5-(3-Ethanesulfonyl-phenyl)-3-methyl-7,9-dihydro-dipyrido[2,3-b;4′,3′-d]pyrrol-8-one] | 5.6 to 8.5 nM
15 | CCS(=O)(=O)c1cccc(-c2cnc(Cl)c3[nH]c4ncc(C)cc4c23)c1 [Compound 33, 8-Chloro-5-(3-ethanesulfonyl-phenyl)-3-methyl-9H-dipyrido[2,3-b;4′,3′-d]pyrrole] | 4 to 5.5 nM
16 | CCS(=O)(=O)c1cccc(-c2cnc(NCCCN(C)C)c3[nH]c4ncc(C)cc4c23)c1 [Compound 41, N′-[5-(3-Ethanesulfonyl-phenyl)-3-methyl-9H-dipyrido[2,3-b;4′,3′-d]pyrrol-8-yl]-N,N-dimethyl-propane-1,3-diamine] | 5.6 to 8.5 nM

Row | SMILES | IC50
17 | CCS(=O)(=O)c1cccc(-c2cnc(NCCN(C)C)c3[nH]c4ncc(C)cc4c23)c1 [Compound 42, N′-[5-(3-Ethanesulfonyl-phenyl)-3-methyl-9H-dipyrido[2,3-b;4′,3′-d]pyrrol-8-yl]-N,N-dimethyl-ethane-1,2-diamine] | 8.6 to 13 nM
18 | CCS(=O)(=O)c1cccc(-c2cnc(NCCCN3CCOCC3)c3[nH]c4ncc(C)cc4c23)c1 [Compound 43, [5-(3-Ethanesulfonyl-phenyl)-3-methyl-9H-dipyrido[2,3-b;4′,3′-d]pyrrol-8-yl]-(3-morpholin-4-yl-propyl)-amine] | 5.6 to 8.5 nM
19 | CCS(=O)(=O)c1cccc(-c2cnc(NC3CCN(C)CC3)c3[nH]c4ncc(C)cc4c23)c1 [Compound 44, [5-(3-Ethanesulfonyl-phenyl)-3-methyl-9H-dipyrido[2,3-b;4′,3′-d]pyrrol-8-yl]-(1-methyl-piperidin-4-yl)-amine] | 8.6 to 13 nM
20 | CCS(=O)(=O)c1cccc(-c2cnc(NCC3CCN(C)CC3)c3[nH]c4ncc(C)cc4c23)c1 [Compound 46, [5-(3-Ethanesulfonyl-phenyl)-3-methyl-9H-dipyrido[2,3-b;4′,3′-d]pyrrol-8-yl]-(1-methyl-piperidin-4-ylmethyl)-amine] | 8.6 to 13 nM
21 | CCS(=O)(=O)c1cccc(-c2cnc(C)c3[nH]c4ncc(C)cc4c23)c1 [Compound 47, 5-(3-Ethanesulfonyl-phenyl)-3,8-dimethyl-9H-dipyrido[2,3-b;4′,3′-d]pyrrole] | 5.6 to 8.5 nM
22 | CCS(=O)(=O)c1cccc(-c2cnc(C#N)c3[nH]c4ncc(C)cc4c23)c1 [Compound 49, 5-(3-Ethanesulfonyl-phenyl)-3-methyl-9H-dipyrido[2,3-b;4′,3′-d]pyrrole-8-carbonitrile] | 8.6 to 13 nM
23 | CCS(=O)(=O)c1cccc(-c2cnc(C(N)=O)c3[nH]c4ncc(C)cc4c23)c1 [Compound 50, 5-(3-Ethanesulfonyl-phenyl)-3-methyl-9H-dipyrido[2,3-b;4′,3′-d]pyrrole-8-carboxylic acid amide] | 5.6 to 8.5 nM
24 | CCOc1ncc(-c2cccc(S(=O)(=O)CC)c2)c2c1[nH]c1ncc(C)cc12 [Compound 51, 5-(3-Ethanesulfonyl-phenyl)-8-ethoxy-3-methyl-9H-dipyrido[2,3-b;4′,3′-d]pyrrole] | 5.6 to 8.5 nM
25 | CCS(=O)(=O)c1cccc(-c2cnc(OCCCN(C)C)c3[nH]c4ncc(C)cc4c23)c1 [Compound 52, {3-[5-(3-Ethanesulfonyl-phenyl)-3-methyl-9H-dipyrido[2,3-b;4′,3′-d]pyrrol-8-yloxy]-propyl}-dimethyl-amine] | 8.6 to 13 nM
26 | CCS(=O)(=O)c1cccc(-c2cnc(OCCO)c3[nH]c4ncc(C)cc4c23)c1 [Compound 53, 2-[5-(3-Ethanesulfonyl-phenyl)-3-methyl-9H-dipyrido[2,3-b;4′,3′-d]pyrrol-8-yloxy]-ethanol] | 4 to 5.5 nM
27 | CCS(=O)(=O)c1cccc(-c2cnc(OCC3CCN(C)CC3)c3[nH]c4ncc(C)cc4c23)c1 [Compound 54, 5-(3-Ethanesulfonyl-phenyl)-3-methyl-8-(1-methyl-piperidin-4-ylmethoxy)-9H-dipyrido[2,3-b;4′,3′-d]pyrrole] | 8.6 to 13 nM
28 | CCS(=O)(=O)c1cccc(-c2cnc(OCCCO)c3[nH]c4ncc(C)cc4c23)c1 [Compound 55, 3-[5-(3-Ethanesulfonyl-phenyl)-3-methyl-9H-dipyrido[2,3-b;4′,3′-d]pyrrol-8-yloxy]-propan-1-ol] | < 4 nM
29 | CCS(=O)(=O)c1cccc(-c2cnc(OC[C@H](O)CO)c3[nH]c4ncc(C)cc4c23)c1 [Compound 56] | < 4 nM
30 | CCS(=O)(=O)c1cccc(-c2cnc(OC[C@@H](O)CO)c3[nH]c4ncc(C)cc4c23)c1 [Compound 57] | 4 to 5.5 nM
31 | CCS(=O)(=O)c1cccc(-c2cnc(OCC(C)(C)O)c3[nH]c4ncc(C)cc4c23)c1 [Compound 58, 1-[5-(3-Ethanesulfonyl-phenyl)-3-methyl-9H-dipyrido[2,3-b;4′,3′-d]pyrrol-8-yloxy]-2-methyl-propan-2-ol] | 8.6 to 13 nM
